According to ChEMBL document CHEMBL1201862, “PubChem BioAssay data set” (2004):
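Compound exposure: 48 hours, 5 concentrations, 96-well plates. The concentration for 50% growth inhibition is given as GI50.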 The source made the active and inactive calls. Cut-off read from the data, not from the text of the source: active = GI50 up to about 1.1 µM and inactive = higher.

How the values were obtained:
Assay in all cases: NCI-60 cell line screen, 48 h
NCI/ADR-RES = system: NCI/ADR-RES
PC-3 = system: PC-3
OVCAR-5 = system: OVCAR-5
LOX IMVI = system: LOX IMVI
OVCAR-3 = system: OVCAR-3
RPMI-8226 = system: RPMI-8226
SN12C = system: SN12C
OVCAR-8 = system: OVCAR-8
IGROV-1 = system: IGROV-1
SK-MEL-28 = system: SK-MEL-28
SNB-19 = system: SNB-19
HCT-116 = system: HCT-116
SF-268 = system: SF-268
EKVX = system: EKVX
K562 = system: K562
UACC-257 = system: UACC-257
A498 = system: A498
UACC-62 = system: UACC-62
CCRF-CEM = system: CCRF-CEM
Malme-3M = system: Malme-3M

Measured: GI50

O=C(O)CCC/N=C(\C(=N\CCCC(=O)O)c1ccccc1)c1ccccc1
inactive: NCI/ADR-RES > 100 µM | PC-3 > 100 µM | OVCAR-5 > 100 µM | LOX IMVI > 100 µM | OVCAR-3 > 100 µM | RPMI-8226 > 100 µM | SN12C > 100 µM | OVCAR-8 > 100 µM | IGROV-1 > 100 µM | SK-MEL-28 > 100 µM | SNB-19 > 100 µM | HCT-116 > 100 µM | SF-268 > 100 µM | EKVX > 100 µM | K562 > 100 µM | UACC-257 > 100 µM | A498 > 100 µM | UACC-62 > 100 µM

O=C(N/N=C/C=C/c1ccccc1)c1ccccc1Nc1ccccc1C(=O)N/N=C/C=C/c1ccccc1
inactive: NCI/ADR-RES > 100 µM | PC-3 > 100 µM | OVCAR-5 > 100 µM | OVCAR-3 > 100 µM | RPMI-8226 > 100 µM | SN12C > 100 µM | OVCAR-8 > 100 µM | IGROV-1 > 100 µM | CCRF-CEM 12.5 µM | SK-MEL-28 > 100 µM | SNB-19 11.9 µM | HCT-116 90.8 µM | SF-268 34.4 µM | EKVX > 100 µM | K562 > 100 µM | UACC-257 > 100 µM | A498 > 100 µM | UACC-62 93.5 µM | Malme-3M > 100 µM

O=C(OCCN=c1c2ccccc2ccc2ccccc12)c1ccccc1
inactive: NCI/ADR-RES 96.4 µM | PC-3 67.3 µM | OVCAR-5 > 100 µM | LOX IMVI 72.1 µM | OVCAR-3 > 100 µM | RPMI-8226 > 100 µM | SN12C 64.1 µM | OVCAR-8 78.7 µM | IGROV-1 72.1 µM | CCRF-CEM 40.8 µM | SK-MEL-28 > 100 µM | SNB-19 40.5 µM | HCT-116 42.2 µM | SF-268 > 100 µM | EKVX 29.2 µM | K562 38 µM | UACC-257 > 100 µM | UACC-62 75 µM | Malme-3M > 100 µM

COc1cc(S(=O)(=O)Nc2nc(-c3ccc(N4C(=O)/C(=C/c5ccccc5)N=C4c4ccccc4)cc3)cs2)ccc1Cl
inactive: NCI/ADR-RES > 100 µM | PC-3 36.6 µM | OVCAR-5 > 100 µM | LOX IMVI 34.5 µM | OVCAR-3 11.9 µM | SN12C 45 µM | OVCAR-8 44.4 µM | IGROV-1 44.2 µM | CCRF-CEM 34.6 µM | SK-MEL-28 54.7 µM | SNB-19 50.6 µM | HCT-116 36.5 µM | SF-268 25 µM | K562 41.6 µM | UACC-257 55.2 µM | A498 31.3 µM | UACC-62 21.2 µM | Malme-3M 30.8 µM

CC(=O)O[C@@H]1[C@H]2[C@@H](OC(=O)c3ccccc3)[C@@H](C)C[C@]2(O)[C@H](OC(C)=O)[C@@]2(C)[C@@H]3CC(C)(C)C(=O)[C@]3(OC(C)=O)C[C@@]12C
inactive: NCI/ADR-RES > 25 µM | PC-3 17.7 µM | OVCAR-5 > 25 µM | LOX IMVI > 25 µM | OVCAR-3 > 25 µM | SN12C > 25 µM | OVCAR-8 20.6 µM | IGROV-1 > 25 µM | CCRF-CEM 1.92 µM | SNB-19 > 25 µM | HCT-116 > 25 µM | SF-268 > 25 µM | EKVX > 25 µM | UACC-257 > 25 µM | A498 12.8 µM | UACC-62 > 25 µM

Fc1cccc(F)c1C(Nc1nncs1)Nc1nncs1
inactive: NCI/ADR-RES > 100 µM | PC-3 > 100 µM | OVCAR-5 > 100 µM | OVCAR-3 > 100 µM | RPMI-8226 > 100 µM | SN12C > 100 µM | OVCAR-8 > 100 µM | IGROV-1 > 100 µM | SK-MEL-28 > 100 µM | SNB-19 > 100 µM | HCT-116 50.5 µM | SF-268 > 100 µM | K562 > 100 µM | UACC-257 > 100 µM | A498 > 100 µM | UACC-62 > 100 µM | Malme-3M > 100 µM

O=C1/C(=C/c2ccc(Cl)cc2)N=C(c2ccccc2)N1c1nc2ccccc2s1
inactive: NCI/ADR-RES 34 µM | PC-3 29.9 µM | OVCAR-5 > 100 µM | LOX IMVI 43.6 µM | OVCAR-3 38.5 µM | RPMI-8226 39.7 µM | OVCAR-8 59.4 µM | IGROV-1 34.4 µM | CCRF-CEM 47.1 µM | SK-MEL-28 52.6 µM | HCT-116 40.7 µM | SF-268 38.4 µM | EKVX > 100 µM | K562 26.4 µM | UACC-257 35.6 µM | A498 30.5 µM

O=C(/C=C/c1ccccc1)c1cc(Br)ccc1O
inactive: NCI/ADR-RES 17.5 µM | PC-3 17.1 µM | OVCAR-5 22.3 µM | LOX IMVI 12.2 µM | OVCAR-3 18 µM | RPMI-8226 6.84 µM | SN12C 15.1 µM | OVCAR-8 16 µM | IGROV-1 11.5 µM | CCRF-CEM 6.3 µM | SK-MEL-28 15.5 µM | SNB-19 17.1 µM | HCT-116 16.3 µM | SF-268 16.9 µM | EKVX 13.8 µM | K562 4.28 µM | UACC-257 14 µM | A498 13.8 µM | UACC-62 13.9 µM
